Source: patent publication US20070123556A1, “Treatment with Sigma Receptor Agonists Post-Stroke” (UNIVERSITY OF SOUTH FLORIDA, priority 2005, published 2007)
Values joined by “and” are separate entries in the source; they are usually repeats but may differ in a detail not shown here. Identical values can stand only once.

How the values were obtained:
[1] = tested on: cultured cortical neurons; experiment: in vitro ischemia (sodium azide/glucose deprivation), fura-2 [Ca2+]i; assay type: cell-based, rat
Protocol: The effects of sigma receptors on ischemia-induced changes in intracellular calcium concentrations were studied in cultured cortical neurons from embryonic (E18) rats. Dams were euthanatized by decapitation, uterus removed, and embryos dissected out and placed in isotonic buffer containing (in mM): 137 NaCl, 5 KCl, 0.2 NaH2PO4, 0.2 KH2PO4, 5.5 glucose, 6 sucrose (pH 7.4 with NaOH). Cortex were excised and minced, and tissue digested in isotonic buffer containing 0.25% trypsin/EDTA for 10 min at 37° C. and added to 3× volume of high glucose culture media (Dulbecco's Modified Eagle Media; Invitrogen, Inc., Carlsbad, Calif.), 10% (v/v) fetal calf serum, 100 U/ml penicillin and 0.1 mg/ml streptomycin. Cells were counted on a hemocytometer, plated (0.5×10^6 cells) on 18 mm coverslips coated with poly-l-lysine, and incubated at 37° C. under a 95% air, 5% CO2 atmosphere. After 24 hr the media was replaced with Neurobasal (Invitrogen) medium supplemented with B27 (Invitrogen) and 0.5 mM 1-glutamine to limit astrocyte proliferation in the cultures. Cells were used after 14-21 days in culture.
Intracellular free-calcium was measured using the calcium sensitive dye, fura-2 as previously described (DeHaven and Cuevas, 2004). Cells plated on coverslips were incubated for 1 hour at room temperature in physiological saline solution (PSS) consisting of (in mM): 140 NaCl, 3 KCl, 2.5 CaCl2, 1.2 MgCl2, 7.7 glucose and 10 HEPES (pH to 7.2 with NaOH), which also contained 1 μM of the membrane permeable ester form of fura-2, acetoxymethylester (fura-2 AM) and 0.1% dimethyl sulfoxide (DMSO). The coverslips were then washed in PSS (fura-2 AM free) prior to the experiments being carried out. All solutions were applied via a rapid application system identical to that previously described (Cuevas and Berg, 1998).
A DG-4 high-speed wavelength switcher (Sutter Instruments Co., Novato, Calif.) was used to apply alternating excitation light, and fluorescent emission was captured using a Sensicam digital CCD camera (Cooke Corporation, Auburn Hills, Mich.) and recorded with Slidebook 3.0 software (Intelligent Imaging Innovations, Denver, Colo.). Changes in [Ca^2+]i were calculated using the Slidebook 3 software (Intelligent Imaging Innovations) using methods described previously (DeHaven and Cuevas, 2004).
In vitro ischemia was achieved using the sodium azide/glucose deprivation model.
The control bath solution for all experiments was a physiological saline solution (PSS) containing (in mM) 140 NaCl, 1.2 MgCl2, 3 KCl, 2.5 CaCl2, 7.7 glucose and 10 HEPES, pH to 7.2 with NaOH. All drugs were applied in this solution unless otherwise noted. In vitro ischemia was induced by addition of the cytochrome oxidase inhibitor, NaN3 (4 mM), and removal of glucose from the PSS. For experiments in which multiple ischemic episodes were induced in a single cell, the order of drug application was alternatively reversed to compensate for any effects due to rundown, desensitization or ischemic preconditioning. For experiments with metaphit, cells were preincubated in 50 μM metaphit during the last 15 mm of fura-2 loading and immediately prior to experiments being conducted. The metaphit was washed off for 5 min in the bath using PSS.

[2] = tested on: cultured cortical neurons; experiment: spontaneous Ca2+ transients, fura-2 [Ca2+]i; assay type: cell-based, rat; details: 100 μM
ASIC channels = experiment: low-pH (pH 6.0) evoked ASIC-mediated increases in [Ca2+]i; assay type: cell-based, rat; details: 100 μM, pH 6.0
cultured microglia = details: response to LPS; cited from earlier work

Which “ischemia-induced elevation in [Ca2+]i” value ([1]; 50 μM DTG after preincubation in 50 μM metaphit) does the source give for Cc1ccccc1NC(=N)Nc1ccccc1C [DTG, 1,3-di-o-tolyguanidine] here?
The value was 237 ± 39 nM.

And the “decrease of ischemia-evoked elevation in [Ca2+]i” value ([1]; 50 μM DTG, cells preincubated in 50 μM metaphit)?
Its value is 52±8%.

And the “decrease of ischemia-evoked rise in [Ca2+]i” value ([1]; 50 μM DTG, control cells)?
Its value is ~70% and 83±3%.

And the “ischemia-induced elevation in [Ca2+]i” value ([1]; 50 μM DTG, no metaphit (control 291±47 nM))?
The value was 47 ± 9 nM.

And the “effect on spontaneous increases in [Ca2+]i (number of events)” value [2]?
The value was “reversibly block”.

What about the “effect on low-pH evoked transient increases in [Ca2+]i” value (ASIC channels) of the same compound?
Its value is “inhibits”.

And the “production of TNF-α” value (cultured microglia)?
Its value is “inhibits”.

And the “production of nitric oxide” value (cultured microglia)?
Its value is “inhibits”.
